How the values were obtained:
[1] = system: scopolamine-induced memory deficit rat model; experiment: Passive avoidance test in scopolamine-induced memory deficit model; assay type: in vivo; settings: 24 hrs after shock
Method: (§1) Ethology test such as passive avoidance test and radial maze test were performed for Artemisia apiaceae. In the case of passive avoidance test, the control group, the scopolamine-treated group (3 mg/kg, i.p.), the tacrine-treated group after scopolamine treatment (10 mg/kg p.o.) and the Artemisia apiaceae extract-treated group were shocked. After 24 hrs, entering time to dark chamber (step-through latency, STL) was measured. […] Furthermore, in order to verify enhancement in more specific learning ability, acquisition test in which an error frequency is measured was performed using 8-arm radial maze.

[2] = system: scopolamine-treated rat; experiment: 8-arm radial maze acquisition test in scopolamine-treated animals; assay type: in vivo
Method: as §1

Compound | entering time into the dark chamber (step-through latency, STL) ([1]; scopolamine 3 mg/kg i.p., compared with the control group) | entering time into the dark chamber (step-through latency, STL) ([1]; tacrine 10 mg/kg p.o. after scopolamine treatment) | error frequency compared with the scopolamine-treated group [2] | error frequency ([2]; normal group 1.6, negative control group 3.25)
CN1[C@@H]2C[C@@H](OC(=O)[C@H](CO)c3ccccc3)C[C@H]1[C@@H]1O[C@@H]12 [scopolamine] | significantly decreased entering time into the dark chamber |  |  | 
Nc1c2c(nc3ccccc13)CCCC2 [tacrine] |  | significantly increased entering time into the dark chamber | significantly decreased error frequency | 1.75

Source: patent US20130171278A1 (priority 2010, published 2013)
